The assay deals with human PCSK9 (Homo sapiens, UniProt Q8NBP7). Description: PCSK9 ligand binding TR-FRET assay (interference with binding of human PCSK9 to human LDLR). The settings on record: for Max % inhibition: PCSK9 FRET assay, efficacy (Amax), 100% = 1 uM unlabeled human PCSK9, 0% = DMSO; for IC50: TR-FRET, human PCSK9 Alexa Fluor 647 / human LDLR extracellular domain-Europium Kryptate, read-out: PCSK9 FRET Assay IC50. An outline of the steps:
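Threefold compound dilutions were pre-incubated 30 min with PCSK9, after which 4 nM Europium Kryptate-tagged human LDLR ectodomain was added for a further 2 h.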

Structures are written as SMILES.

Chain of human PCSK9 (Q8NBP7 153-692): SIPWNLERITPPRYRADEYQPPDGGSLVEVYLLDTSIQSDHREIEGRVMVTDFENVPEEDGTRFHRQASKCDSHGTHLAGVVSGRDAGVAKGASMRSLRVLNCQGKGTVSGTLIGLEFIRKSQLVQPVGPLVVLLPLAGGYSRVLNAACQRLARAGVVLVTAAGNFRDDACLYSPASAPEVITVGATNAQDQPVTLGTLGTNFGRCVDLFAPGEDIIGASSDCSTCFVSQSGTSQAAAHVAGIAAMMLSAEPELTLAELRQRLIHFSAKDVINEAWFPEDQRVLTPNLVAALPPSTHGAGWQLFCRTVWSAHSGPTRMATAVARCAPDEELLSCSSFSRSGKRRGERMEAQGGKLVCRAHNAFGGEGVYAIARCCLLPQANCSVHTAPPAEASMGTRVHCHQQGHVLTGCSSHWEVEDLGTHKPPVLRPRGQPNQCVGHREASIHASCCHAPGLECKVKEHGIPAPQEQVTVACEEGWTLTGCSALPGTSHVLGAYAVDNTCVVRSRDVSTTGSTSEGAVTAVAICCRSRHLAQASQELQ
Chain of human PCSK9 (Q8NBP7 31-152 partner limits assumed): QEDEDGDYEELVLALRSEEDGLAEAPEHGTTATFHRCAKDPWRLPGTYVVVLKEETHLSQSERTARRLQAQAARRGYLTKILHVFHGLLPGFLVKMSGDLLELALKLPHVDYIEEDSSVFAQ

Turning to `COC[C@@H]1NC(=O)[C@H](C)N(Cc2ccc(Cl)cc2Oc2ccc(-c3cnc(CN4CCCC4)n3C)cc2)C(=O)C[C@@H](Cc2ccccc2)C(=O)N(C)[C@@H]2CCOC[C@H]2NC(=O)C[C@H](Cc2ccc(Cl)cc2)N(C)C1=O` [Compound 14, (4S,7S,10S,14R,16aR,20aS)-14-benzyl-11-(4-chloro-2-(4-(1-methyl-2-(pyrrolidin-1-ylmethyl)-1H-imidazol-5-yl)phenoxy)benzyl)-4-(4-chlorobenzyl)-7-(methoxymethyl)-5,10,16-trimethyltetradecahydro-1H-pyrano[3,4-l][1,4,7,11,14]pentaazacyclooctadecine-2,6,9,12,15(3H)-pentaone], the Max % inhibition is 93.84% and the IC50 (in general, the concentration at which inhibition is half-maximal) was determined as 307 nM.

For `COC[C@@H]1NC(=O)[C@H](C)N(Cc2ccc(Cl)cc2Oc2ccc(-n3cnc(CN4CCCC4)c3C)cc2)C(=O)C[C@@H](Cc2ccccc2)C(=O)N(C)[C@@H](C)CNC(=O)C[C@H](Cc2ccc(Cl)cc2)N(C)C1=O` [Compound 259, (2S,5S,8S,13S,16R)-16-benzyl-1-(4-chloro-2-(4-(5-methyl-4-(pyrrolidin-1-ylmethyl)-1H-imidazol-1-yl)phenoxy)benzyl)-8-(4-chlorobenzyl)-5-(methoxymethyl)-2,7,13,14-tetramethyl-1,4,7,11,14-pentaazacyclooctadecane-3,6,10,15,18-pentaone], the Max % inhibition was determined as 108.15% and the IC50 was 3.2 nM.

Turning to `COC[C@@H]1NC(=O)[C@H](CCC(=O)N2CCOCC2)N(Cc2ccc(Cl)cc2Oc2ccc(-c3cnc(CN(C)C)n3C)cc2)C(=O)C[C@@H](Cc2ccccc2)C(=O)N(C)[C@H]2CCCC[C@@H]2NC(=O)C[C@H](Cc2ccc(Cl)cc2)N(C)C1=O` [Compound 93, (4S,7S,10S,14R,16aS,20aS)-14-benzyl-11-(4-chloro-2-(4-(2-((dimethylamino)methyl)-1-methyl-1H-imidazol-5-yl)phenoxy)benzyl)-4-(4-chlorobenzyl)-7-(methoxymethyl)-5,16-dimethyl-10-(3-morpholino-3-oxopropyl)hexadecahydrobenzo[l][1,4,7,11,14]pentaazacyclooctadecine-2,6,9,12,15(3H)-pentaone], the Max % inhibition amounted to 96.70% and the IC50 is 6.3 nM.

With `COC[C@@H]1NC(=O)[C@H](C)N(Cc2ccc(Cl)cc2Oc2ccc(-c3cncc(C4CN(C)CCN4C)c3)cc2)C(=O)C[C@@H](Cc2ccccc2)C(=O)N(C)[C@@H](C)CNC(=O)C[C@H](Cc2ccc(Cl)cc2)N(C)C1=O` (stereo partly drawn) [Compound 135, (2S,5S,8S,13S,16R)-16-benzyl-1-(4-chloro-2-(4-(5-(1,4-dimethylpiperazin-2-yl)pyridin-3-yl)phenoxy)benzyl)-8-(4-chlorobenzyl)-5-(methoxymethyl)-2,7,13,14-tetramethyl-1,4,7,11,14-pentaazacyclooctadecane-3,6,10,15,18-pentaone], the Max % inhibition worked out at 58.33% and the IC50 was 9.4 nM.

Take `COC[C@@H]1NC(=O)[C@H](CCCN2CCOCC2)N(Cc2ccc(Cl)cc2Oc2ccc(-c3cnc(CN4CCCC4)n3C)cc2)C(=O)C[C@@H](Cc2ccccc2)C(=O)N(C)[C@H]2CCCC[C@@H]2NC(=O)C[C@H](Cc2ccc(Cl)cc2)N(C)C1=O` [Compound 252, (4S,7S,10S,14R,16aS,20aS)-14-benzyl-11-(4-chloro-2-(4-(1-methyl-2-(pyrrolidin-1-ylmethyl)-1H-imidazol-5-yl)phenoxy)benzyl)-4-(4-chlorobenzyl)-7-(methoxymethyl)-5,16-dimethyl-10-(3-morpholinopropyl)hexadecahydrobenzo[l][1,4,7,11,14]pentaazacyclooctadecine-2,6,9,12,15(3H)-pentaone]: the Max % inhibition was 92.00% and the IC50 came to 2.1 nM.

`COC[C@@H]1NC(=O)[C@H](C)N(Cc2ccc(Cl)cc2Oc2ccc(-c3cnc(CN4CCCC4)n3C)c(C)c2)C(=O)C[C@@H](Cc2ccccc2)C(=O)N(C)[C@@H](C)CNC(=O)C[C@H](Cc2ccc(Cl)cc2)N(C)C1=O` [Compound 281, (2S,5S,8S,13S,16R)-16-benzyl-1-(4-chloro-2-(3-methyl-4-(1-methyl-2-(pyrrolidin-1-ylmethyl)-1H-imidazol-5-yl)phenoxy)benzyl)-8-(4-chlorobenzyl)-5-(methoxymethyl)-2,7,13,14-tetramethyl-1,4,7,11,14-pentaazacyclooctadecane-3,6,10,15,18-pentaone]: the Max % inhibition is on record as 89.62% and the concentration for half-maximal inhibition (IC50) worked out at 1 nM.

Take `COC[C@@H]1NC(=O)[C@H](C)N(Cc2ccc(OC(F)(F)F)cc2Oc2ccc(-c3cnc(CN(C)C)n3C)cc2)C(=O)C[C@@H](Cc2ccccc2)C(=O)N(C)[C@@H](C)CNC(=O)C[C@H](Cc2ccc(Cl)cc2)N(C)C1=O` [Compound 35, (2S,5S,8S,13S,16R)-16-benzyl-8-(4-chlorobenzyl)-1-(2-(4-(2-((dimethylamino)methyl)-1-methyl-1H-imidazol-5-yl)phenoxy)-4-(trifluoromethoxy)benzyl)-5-(methoxymethyl)-2,7,13,14-tetramethyl-1,4,7,11,14-pentaazacyclooctadecane-3,6,10,15,18-pentaone]: the Max % inhibition amounted to 104.05% and the IC50 was 4.2 nM.

On to `COC[C@@H]1NC(=O)[C@H](C)N(Cc2ccc(Cl)cc2Oc2ccc(-c3cnc4n3CCN(C(=O)C(C)C)C4)cc2)C(=O)C[C@@H](Cc2ccccc2)C(=O)N(C)[C@@H](C)CNC(=O)C[C@H](Cc2ccc(Cl)cc2)N(C)C1=O` [Compound 132, (2S,5S,8S,13S,16R)-16-benzyl-1-(4-chloro-2-(4-(7-isobutyryl-5,6,7,8-tetrahydroimidazo[1,2-a]pyrazin-3-yl)phenoxy)benzyl)-8-(4-chlorobenzyl)-5-(methoxymethyl)-2,7,13,14-tetramethyl-1,4,7,11,14-pentaazacyclooctadecane-3,6,10,15,18-pentaone], for which the Max % inhibition was found to be 71.97% and the IC50 is 7.3 nM.

For the compound `COC[C@@H]1NC(=O)[C@H](CC(=O)OC(C)(C)C)N(Cc2ccc(Cl)cc2Oc2ccc(-c3cnc(CN(C)C)n3C)cc2)C(=O)C[C@@H](Cc2ccccc2)C(=O)N(C)[C@@H](C)CNC(=O)C[C@H](Cc2ccc(Cl)cc2)N(C)C1=O` [Compound 174, tert-butyl 2-((2S,5S,8S,13S,16R)-16-benzyl-1-(4-chloro-2-(4-(2-((dimethylamino)methyl)-1-methyl-1H-imidazol-5-yl)phenoxy)benzyl)-8-(4-chlorobenzyl)-5-(methoxymethyl)-7,13,14-trimethyl-3,6,10,15,18-pentaoxo-1,4,7,11,14-pentaazacyclooctadecan-2-yl)acetate], the Max % inhibition is reported as 102.02% and the IC50 came to 11.4 nM.

Take `COC[C@@H]1NC(=O)[C@H](C)N(Cc2ccc(Cl)cc2Oc2ccc(-n3cnc(CN(C)C)c3C)cc2)C(=O)C[C@@H](Cc2ccccn2)C(=O)N(C)[C@H]2CCCC[C@@H]2NC(=O)C[C@H](Cc2ccc(Cl)cc2)N(C)C1=O` [Compound 105, (4S,7S,10S,14R,16aS,20aS)-11-(4-chloro-2-(4-(4-((dimethylamino)methyl)-5-methyl-1H-imidazol-1-yl)phenoxy)benzyl)-4-(4-chlorobenzyl)-7-(methoxymethyl)-5,10,16-trimethyl-14-(pyridin-2-ylmethyl)hexadecahydrobenzo[l][1,4,7,11,14]pentaazacyclooctadecine-2,6,9,12,15(3H)-pentaone]: the Max % inhibition amounted to 104.44% and the IC50 came to 1 nM.

For the compound `C[C@@H]1CC(=O)N(Cc2ccc(Cl)cc2Oc2ccc(-c3cnc(CN(C)C)n3C)cc2)[C@@H](C)C(=O)N[C@@H](CO)C(=O)N(C)[C@@H](Cc2ccc(Cl)cc2)CC(=O)N[C@H]2CCCC[C@@H]2N(C)C1=O` [Compound 164, (4S,7S,10S,14R,16aS,20aS)-11-(4-chloro-2-(4-(2-((dimethylamino)methyl)-1-methyl-1H-imidazol-5-yl)phenoxy)benzyl)-4-(4-chlorobenzyl)-7-(hydroxymethyl)-5,10,14,16-tetramethylhexadecahydrobenzo[l][1,4,7,11,14]pentaazacyclooctadecine-2,6,9,12,15(3H)-pentaone], the Max % inhibition was 80.18% and the IC50 came to 3.6 nM.

With `COC[C@@H]1NC(=O)[C@H](C)N(Cc2ccc(Cl)cc2Oc2ccc(-c3ccc(C(=O)NC4CCNCC4)nc3)cc2)C(=O)C[C@@H](Cc2ccccc2)C(=O)N(C)[C@@H](C)CNC(=O)C[C@H](Cc2ccc(Cl)cc2)N(C)C1=O.O=C(O)C(F)(F)F` [Compound 122, 5-(4-(2-(((2S,5S,8S,13S,16R)-16-benzyl-8-(4-chlorobenzyl)-5-(methoxymethyl)-2,7,13,14-tetramethyl-3,6,10,15,18-pentaoxo-1,4,7,11,14-pentaazacyclooctadecan-1-yl)methyl)-5-chlorophenoxy)phenyl)-N-(piperidin-4-yl)picolinamide trifluoroacetate], the Max % inhibition is listed as 55.05% and the IC50 stood at 8.7 nM.

Turning to `COC[C@@H]1NC(=O)[C@H](C)N(Cc2ccc(Cl)cc2Oc2cc(F)c(-c3cnc(CN4CCCC4)n3C)c(F)c2)C(=O)C[C@@H](Cc2ccccc2)C(=O)N(C)[C@@H](C)CNC(=O)C[C@H](Cc2ccc(Cl)cc2)N(C)C1=O` [Compound 51, (2S,5S,8S,13S,16R)-16-benzyl-1-(4-chloro-2-(3,5-difluoro-4-(1-methyl-2-(pyrrolidin-1-ylmethyl)-1H-imidazol-5-yl)phenoxy)benzyl)-8-(4-chlorobenzyl)-5-(methoxymethyl)-2,7,13,14-tetramethyl-1,4,7,11,14-pentaazacyclooctadecane-3,6,10,15,18-pentaone], the Max % inhibition stood at 94.86% and the IC50 amounted to 0.5 nM.

The record behind these values is patent US20230089867A1, “CYCLIC PENTAMER COMPOUNDS AS PROPROTEIN CONVERTASE SUBTILISIN/KEXIN TYPE 9 (PCSK9) INHIBITORS FOR THE TREATMENT OF METABOLIC DISORDER” (Novartis AG, priority 2018, published 2023).
